These results are taken from US6338946B1, “Method for assaying immunosuppressant” (Fujisawa Pharmaceutical Co., Ltd., priority 1994, dated 2002).

In experiment [1] the target is FKBP-12 (Homo sapiens, UniProt P62942). The experiment is described as follows: FKBP-12 binding activity measurement using 3H-dihydro-FK506. The conditions noted are these: for FKBP-12 binding activity (relative %): relative to FK506 = 100. As for the experimental part: (1) The FKBP-12 binding activity measurement was carried out in the same manner as described in Clinical Chemistry, 38/7, 1307-1310 (1992), using ^3H-dihydro-FK506, FKBP-12, dextran charcoaled, etc.

Experiment [2] concerns the target T1, complex of FKBP-12, bovine calcineurin, bovine calmodulin and calcium ion (UniProt P48452+P62942+P63099).
T1 construct: made in house; host or cells: E. coli HB101 (vector pFKBP333, tryptophan promoter)
The experiment is described as follows: Complex formation assay with solid-phase FKBP-12, detected by anti-calcineurin enzyme immunoassay (fluorometry). Particulars: for Concentration dependence of fluorescence intensity (in words): Table 1 concentration series; for Complex forming activity (relative %): relative to FK506 = 100, calculated from Table 1 data. In kind it is binding, human FKBP-12; bovine calcineurin and calmodulin. As for the experimental part: The plate was then washed 3 times with the same phosphate buffer solution as used in Preparation 1. FKBP-12 was thus bound to each well. An assay buffer (300 μl) having the composition shown below was added to each well and, after 15 minutes, it was removed, to block residual protein binding sites in each well. […] A solution (5 mg/ml) of a crude product, prepared by the conventional method, in 20 mM Tris-hydrochloride (pH 7.0) was 40-fold diluted with the above-mentioned assay buffer. Commercial bovine calmodulin was appropriately diluted with the above-mentioned assay buffer (to give a final concentration of 95 nM in the well). A methanol solution (1 mg/ml) of FK506 was appropriately diluted with the above-mentioned assay buffer. (3) Each well was washed (4 times) with the same buffer as the above-mentioned assay buffer except that it was free of bovine serum albumin and, then, an appropriate dilution (100 μl), in the assay buffer, of a rabbit polyclonal antibody recognizing the calcineurin Aα chain as obtained by the known method described, for example, in J. Neurochem., 58, 1643-1651 (1992) was added to each well, and the reaction was allowed to proceed at room temperature for 1 hour. (4) Each well was washed (4 times) with the same buffer as the above-mentioned assay buffer except that it was free of bovine serum albumin and, then, an appropriate dilution (100 μl), in the assay buffer, of alkaline phosphatase-labeled anti-rabbit IgG (Vector Laboratories) was added to each well. (5) Each well was washed (4 times) with the same buffer as the assay buffer except that it was free of bovine serum albumin and, then, 200 μl of a 4-methylumbelliferyl phosphate (hereinafter, 4-MU) substrate solution (1 mM), prepared as described below, was added to each well and, after the lapse of 20 minutes at room temperature, fluorometry (excitation wavelength 360 nm; emission wavelength 460 nm) was carried out using Cytofluor 2350 (trademark, Millipore Co. Ltd, USA). […] Ltd) was prepared with water and further diluted with a buffer solution (10 mM, pH 10.0) comprising diethanolamine (0.7 ml/l) and magnesium chloride hexahydrate (0.1 g/l) to give a 1 mM 4-MU substrate solution. Using the metabolites M-II and M-III shown below, which are already known as metabolites obtainable upon treatment of FK506 with rat liver microsome, as described, for example, in Drug Metabolism and Disposition, 21 (6), 971-977, quantitative analysis was carried out in the same manner as in Example 1.

In experiment [3] the test system is mixed lymphocyte reaction. The experiment is described as follows: in vitro mixed lymphocyte reaction (MLR) test. In kind it is cell-based. Particulars: for Immunosuppressive activity (in words): MLR; for Immunosuppressive activity (MLR) (relative %): relative to FK506 = 100. The protocol: (2) The immunosuppressive activity was measured by the well-known in vitro mixed lymphocyte reaction (MLR) test described, for example, in European Patent Application EP-0184162-A2, page 67.

FKBP-12, sequence (P62942 whole entry): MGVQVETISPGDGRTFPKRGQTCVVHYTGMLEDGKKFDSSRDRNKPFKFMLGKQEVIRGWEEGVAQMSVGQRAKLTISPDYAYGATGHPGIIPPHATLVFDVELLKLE

In the case of `C=CC[C@@H]1/C=C(\C)C[C@H](C)C[C@H](OC)[C@H]2O[C@@](O)(C(=O)C(=O)N3CCCC[C@H]3C(=O)O[C@H](/C(C)=C/[C@@H]3CC[C@@H](O)[C@H](OC)C3)[C@H](C)[C@@H](O)CC1=O)[C@H](C)C[C@@H]2OC` [FK506, 17-Allyl-1,14-dihydroxy-12-[2-(4-hydroxy-3-methoxycyclohexyl)-1-methylvinyl]-23,25-dimethoxy-13,19,21,27-tetramethyl-11,28-dioxa-4-azatricyclo[22.3.1.0^4,9]octacos-18-ene-2,3,10,16-tetraone], in experiment [1], the “FKBP-12 binding activity (relative %)” value worked out at 100 relative %. In experiment [2], the “Detection by the complex assay method (in words)” value (from here on “Detection”) is reported as “can be detected”, the “Concentration dependence of fluorescence intensity (in words)” value (“Concentration dependence” below) is “give fluorescence intensities depending on their concentrations” and the “Complex forming activity (relative %)” value is 100 relative %. Besides, in experiment [3], the “Immunosuppressive activity (in words)” value is given as “have immunosuppressive activity” and the “Immunosuppressive activity (MLR) (relative %)” value came out at 100 relative %.
In the case of `C=CCC1/C=C(\C)CC(C)CC(O)C2OC(O)(C(=O)C(=O)N3CCCCC3C(=O)OC(/C(C)=C/C3CCC(O)C(C)C3)C(C)C(O)CC1=O)C(C)CC2OC` (stereo not shown) [M-III], in experiment [1], the “FKBP-12 binding activity (in words)” value is reported as “has FKBP-12 binding activity” and the “FKBP-12 binding activity (relative %)” value turned out to be 116.0 relative %. In experiment [2], the “Detection” value is “is not detected”, the “Concentration dependence” value is recorded as “does not give concentration-dependent values” and the “Complex forming activity (relative %)” value is 0 relative %. Further, in experiment [3], the “Immunosuppressive activity (in words)” value is “has no immunosuppressive activity” and the “Immunosuppressive activity (MLR) (relative %)” value turned out to be 0 relative %.
Take `C=CCC1/C=C(\C)CC(C)CC(OC)C2OC(O)(C(=O)C(=O)N3CCCCC3C(=O)OC(/C(C)=C/C3CCC(O)C(O)C3)C(C)C(O)CC1=O)C(C)CC2OC` (stereo not shown) [M-II]: in experiment [1], the “FKBP-12 binding activity (relative %)” value stood at 14.2 relative %. Besides, in experiment [2], the “Detection” value was “can be detected”, the “Concentration dependence” value is recorded as “give fluorescence intensities depending on their concentrations” and the “Complex forming activity (relative %)” value was 79.7 relative %. For the same molecule, in experiment [3], the “Immunosuppressive activity (in words)” value was “have immunosuppressive activity” and the “Immunosuppressive activity (MLR) (relative %)” value worked out at 100 relative %.
